PubChem BioAssay (NCI)
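These data come from cells grown in 96-well plates and exposed to compound for 48 hours at five concentrations. TGI marks complete inhibition of growth.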

Key:
Assay in all cases: growth of human tumour cells (NCI), 48 h
SK-MEL-28 melanoma = system: SK-MEL-28 melanoma
SF-295 CNS = system: SF-295 CNS
K-562 leukemia = system: K-562 leukemia
CAKI-1 renal = system: CAKI-1 renal
HCT-116 colon = system: HCT-116 colon
ACHN renal = system: ACHN renal
NCI-H23 lung = system: NCI-H23 lung
HT29 colon = system: HT29 colon
HOP-92 NSCLC = system: HOP-92 NSCLC
COLO 205 colon = system: COLO 205 colon
SK-MEL-2 melanoma = system: SK-MEL-2 melanoma
UACC-257 melanoma = system: UACC-257 melanoma
EKVX NSCLC = system: EKVX NSCLC
U251 CNS = system: U251 CNS
MDA-N = system: MDA-N
MCF7 breast = system: MCF7 breast
DU-145 prostate = system: DU-145 prostate
M14 melanoma = system: M14 melanoma
RXF 393 renal = system: RXF 393 renal
SF-539 CNS = system: SF-539 CNS
SK-MEL-5 melanoma = system: SK-MEL-5 melanoma
TK-10 renal = system: TK-10 renal
CCRF-CEM leukemia = system: CCRF-CEM leukemia
NCI-H522 lung = system: NCI-H522 lung
SW-620 colon = system: SW-620 colon
MDA-MB-435 = system: MDA-MB-435
A549 NSCLC = system: A549 NSCLC
HL-60(TB) leukemia = system: HL-60(TB) leukemia
UACC-62 melanoma = system: UACC-62 melanoma
SNB-19 CNS = system: SNB-19 CNS
MDA-MB-231 breast = system: MDA-MB-231 breast
UO-31 renal = system: UO-31 renal
OVCAR-4 ovarian = system: OVCAR-4 ovarian
NCI-H460 lung = system: NCI-H460 lung
RPMI-8226 leukemia = system: RPMI-8226 leukemia
786-0 renal = system: 786-0 renal
PC-3 prostate = system: PC-3 prostate
LOX IMVI melanoma = system: LOX IMVI melanoma
OVCAR-5 ovarian = system: OVCAR-5 ovarian
HCT-15 colon = system: HCT-15 colon
SR leukemia = system: SR leukemia
MOLT-4 leukemia = system: MOLT-4 leukemia
NCI/ADR-RES ovarian = system: NCI/ADR-RES ovarian
IGROV1 ovarian = system: IGROV1 ovarian
NCI-H226 lung = system: NCI-H226 lung
OVCAR-3 ovarian = system: OVCAR-3 ovarian
OVCAR-8 ovarian = system: OVCAR-8 ovarian
SN12C renal = system: SN12C renal
A498 renal = system: A498 renal

For C[C@]12CCC(N3CCCC3)CC1=CC[C@@H]1[C@@H]2CC[C@]2(C)C(O)[C@H](n3ccnc3)C[C@@H]12 (some centres undefined), the TGI (SK-MEL-28 melanoma) was 68.5 µM, the TGI (SF-295 CNS) was over 100 µM and the TGI (K-562 leukemia) was over 100 µM. The TGI (CAKI-1 renal) was over 100 µM, the TGI (HCT-116 colon) was over 100 µM and the TGI (ACHN renal) was over 100 µM. For the same molecule, the TGI (NCI-H23 lung) was over 100 µM, the TGI (HT29 colon) was over 100 µM and the TGI (HOP-92 NSCLC) was over 100 µM. For the same molecule, the TGI (COLO 205 colon) was over 100 µM, the TGI (SK-MEL-2 melanoma) was over 100 µM and the TGI (UACC-257 melanoma) was over 100 µM. The TGI (EKVX NSCLC) was over 100 µM, the TGI (U251 CNS) was over 100 µM and the TGI (MDA-N) was over 100 µM. The TGI (MCF7 breast) was over 100 µM, the TGI (DU-145 prostate) was over 100 µM and the TGI (M14 melanoma) was 34.4 µM. The TGI (RXF 393 renal) was 72.8 µM, the TGI (SF-539 CNS) was 46.5 µM and the TGI (SK-MEL-5 melanoma) was over 100 µM. It also gave a TGI (TK-10 renal) of over 100 µM, a TGI (CCRF-CEM leukemia) of over 100 µM and a TGI (NCI-H522 lung) of over 100 µM. For the same molecule, the TGI (SW-620 colon) was over 100 µM, the TGI (MDA-MB-435) was over 100 µM and the TGI (A549 NSCLC) was over 100 µM. It also gave a TGI (HL-60(TB) leukemia) of 36.1 µM, a TGI (UACC-62 melanoma) of over 100 µM and a TGI (SNB-19 CNS) of over 100 µM. The TGI (MDA-MB-231 breast) was over 100 µM, the TGI (UO-31 renal) was over 100 µM and the TGI (OVCAR-4 ovarian) was over 100 µM. It also gave a TGI (NCI-H460 lung) of over 100 µM, a TGI (RPMI-8226 leukemia) of over 100 µM and a TGI (786-0 renal) of over 100 µM. It also gave a TGI (PC-3 prostate) of over 100 µM, a TGI (LOX IMVI melanoma) of over 100 µM and a TGI (OVCAR-5 ovarian) of over 100 µM. For the same molecule, the TGI (HCT-15 colon) was over 100 µM, the TGI (SR leukemia) was 43.9 µM and the TGI (MOLT-4 leukemia) was 83.6 µM. For the same molecule, the TGI (NCI/ADR-RES ovarian) was over 100 µM, the TGI (IGROV1 ovarian) was over 100 µM and the TGI (NCI-H226 lung) was over 100 µM. It also gave a TGI (OVCAR-3 ovarian) of over 100 µM, a TGI (OVCAR-8 ovarian) of over 100 µM and a TGI (SN12C renal) of over 100 µM. For the same molecule, the TGI (A498 renal) was over 100 µM.
